# PMC10979849 (bioRxiv, 2024)
# Molecular target: T1, wild-type (WT) Octβ2R (Drosophila melanogaster, UniProt Q4LBB9)
# T1 sequence (Q4LBB9 1-536): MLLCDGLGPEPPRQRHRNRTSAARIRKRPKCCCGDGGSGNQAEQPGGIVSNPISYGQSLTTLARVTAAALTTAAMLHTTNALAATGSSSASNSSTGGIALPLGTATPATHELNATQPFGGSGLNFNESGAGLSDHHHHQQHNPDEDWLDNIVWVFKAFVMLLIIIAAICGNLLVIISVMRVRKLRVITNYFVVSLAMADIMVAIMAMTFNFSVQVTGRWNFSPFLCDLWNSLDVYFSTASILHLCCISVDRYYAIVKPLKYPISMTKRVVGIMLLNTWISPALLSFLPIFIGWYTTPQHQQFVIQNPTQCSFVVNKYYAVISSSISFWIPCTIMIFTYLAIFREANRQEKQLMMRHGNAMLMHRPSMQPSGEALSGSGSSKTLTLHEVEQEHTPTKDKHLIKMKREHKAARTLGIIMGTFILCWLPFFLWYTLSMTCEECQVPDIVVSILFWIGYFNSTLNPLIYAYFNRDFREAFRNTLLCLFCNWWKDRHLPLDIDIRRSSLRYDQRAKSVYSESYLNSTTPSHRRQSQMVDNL
# Assay: Tango β-arrestin assay
# Format: cell-based
# Conditions: agonist; OA 1 nM to 100 μM, ~16 h (Tango)
compound,measurement,value
NC[C@H](O)c1ccc(O)cc1 [Octopamine],Tango β-arrestin assay (HTLA cells); RFlamp cAMP assay (HEK293T),"negligible β-arrestin-dependent signaling compared to cells expressing WT Octβ2R, even at high concentrations of OA"
